Assay results reported in patent US20250108038A1 (priority 2023, published 2025).
Where “and” joins values, the source holds several entries; their conditions need not be identical. Equal values may be shown once.

Tested on: Long Evans rats
Assay: Behavioral satiety sequence (BSS)
Type: in vivo, Long Evans rat
From the text: The Behavioural Satiety Sequence (BSS) is a technique used to evaluate physiological satiety. It is based on the expression of a sequence of behaviors including eating, grooming, locomotor activity, followed by resting, which are typically observed in rodents post-ingestion (Halford et al, 1998, Pharmacology Biochemistry and Behaviour. 61(2): 159-168). The BSS is a widely used model for determining the effects of novel pharmaceuticals on food intake and measures of satiety in rodents (Oliveira et al, 2011, Revista de Nutrição. 24(4) 619-628), and to discriminate the cause of reduced food intake following pharmacological manipulation. For example, treatments that may reduce food intake by non-specific mechanisms, such as immobility, malaise, and taste adulteration, will disrupt this sequence (Halford et al, 1998, Pharmacology Biochemistry and Behaviour. 61(2): 159-168).
Specifically, 12 male Long-Evans rats were food-deprived for 22 h with a 2 h feeding period each day. Rats were trained to consume daily food during the 2 h period over 25 days. The testing phase was initiated once the rats consistently consumed 16-18 g of food per day with ≤10% variance in amount of feed consumed. Feeding took place in designated individual boxes in a quiet room separate from the housing room. Continuous remote monitoring via video camera during feeding was used to assess the BSS. Food consumption was measured by weighing the total available food before and after the 2 h feeding window, correcting for spillage. Lorcaserin (1 mg/kg) was included as a reference control (Higgins et al, 2011, Neuropsychopharmacology. 37(5): 1177-1191). Subjects were tested using a repeated-measures, Latin square design with 2-3 days wash-out between treatment cycles.
On scheduled test days, animals were monitored remotely via video camera during the feeding access period. The occurrence of four mutually exclusive behaviors (eating/drinking, grooming, active, rest) were individually scored. Over the 2 h feeding period, behaviors were assessed every 30 seconds. Scores were compiled into 23 5 min timebins (timebin 24 was removed due to early removal of animals) and the frequency of each behavior within each timebin was calculated to determine a temporal frequency of each measure (Rodgers et al, 2010, Pharmacology Biochemistry and Behaviour. 97: 3-14). Percentage time was plotted for each behavioral sequence in each timebin to compare between treatment groups (Higgins et al, 2011, Neuropsychopharmacology. 37(5): 1177-1191).

[1] = 3 mg/kg, raw data per animal (LT-1 to LT-12)
[2] = Compound I-19 0.1 mg/kg, AVG of animals LT-1 to LT-12
[3] = Compound I-19 0.1 mg/kg, AVG of animals LT-1 to LT-12, 0-0.5 hours

Clc1ccc(C2(OCC3OCCO3)c3ccccc3C3=NCCN32)cc1 (stereo not drawn) [Compound I-19]
BSS scoring E (eating/drinking), Time Bin 19 (90-95 TOTAL), AVG (3 mg/kg, AVG of LT-1 to LT-12): 0.59
BSS scoring E (eating/drinking), Time Bin 20 (95-100 TOTAL), AVG (3 mg/kg, AVG of LT-1 to LT-12): 0.62
BSS scoring E (eating/drinking), Time Bin 21 (100-105 TOTAL), AVG (3 mg/kg, AVG of LT-1 to LT-12): 0.56
BSS scoring E (eating/drinking), Time Bin 22 (105-110 TOTAL), AVG (3 mg/kg, AVG of LT-1 to LT-12): 0.52
BSS scoring E (eating/drinking), Time Bin 23 (110-115 TOTAL), AVG (3 mg/kg, AVG of LT-1 to LT-12): 0.58
BSS scoring E (eating/drinking), Time Bin 24 (115-120 TOTAL), AVG (3 mg/kg, AVG of LT-1 to LT-12): 0.37
BSS scoring G (grooming), Time Bin 19 (90-95 TOTAL), AVG (3 mg/kg, AVG of LT-1 to LT-12): 0.05
BSS scoring G (grooming), Time Bin 20 (95-100 TOTAL), AVG (3 mg/kg, AVG of LT-1 to LT-12): 0.04
BSS scoring G (grooming), Time Bin 21 (100-105 TOTAL), AVG (3 mg/kg, AVG of LT-1 to LT-12): 0.06
BSS scoring G (grooming), Time Bin 22 (105-110 TOTAL), AVG (3 mg/kg, AVG of LT-1 to LT-12): 0.07
BSS scoring G (grooming), Time Bin 23 (110-115 TOTAL), AVG (3 mg/kg, AVG of LT-1 to LT-12): 0.02
BSS scoring G (grooming), Time Bin 24 (115-120 TOTAL), AVG (3 mg/kg, AVG of LT-1 to LT-12): 0.02
BSS scoring R (resting), Time Bin 19 (90-95 TOTAL), AVG (3 mg/kg, AVG of LT-1 to LT-12): 0.18
BSS scoring R (resting), Time Bin 20 (95-100 TOTAL), AVG (3 mg/kg, AVG of LT-1 to LT-12): 0.15
BSS scoring R (resting), Time Bin 21 (100-105 TOTAL), AVG (3 mg/kg, AVG of LT-1 to LT-12): 0.16
BSS scoring R (resting), Time Bin 22 (105-110 TOTAL), AVG (3 mg/kg, AVG of LT-1 to LT-12): 0.22
BSS scoring R (resting), Time Bin 23 (110-115 TOTAL), AVG (3 mg/kg, AVG of LT-1 to LT-12): 0.22
BSS scoring R (resting), Time Bin 24 (115-120 TOTAL), AVG (3 mg/kg, AVG of LT-1 to LT-12): 0.18
BSS scoring A (active), Time Bin 19 (90-95 TOTAL) [1]: 0 (3×) and 1 (2×) and 2 (5×) and 4 and 5
BSS scoring A (active), Time Bin 20 (95-100 TOTAL) [1]: 5 and 0 (5×) and 3 and 4 (3×) and 1 and 2
BSS scoring A (active), Time Bin 21 (100-105 TOTAL) [1]: 7 and 0 (6×) and 1 and 5 (3×) and 3
BSS scoring A (active), Time Bin 22 (105-110 TOTAL) [1]: 0 (5×) and 1 and 3 (2×) and 5 and 2 (2×) and 8
BSS scoring A (active), Time Bin 23 (110-115 TOTAL) [1]: 0 (6×) and 3 (2×) and 5 (2×) and 1 and 6
BSS scoring A (active), Time Bin 24 (115-120 TOTAL) [1]: 3 and 0 (3×) and 2 (3×) and 7 (2×) and 1 and 4 (2×)
BSS scoring E (eating/drinking), Time Bin 19 (90-95 TOTAL) [1]: 7 (2×) and 8 (2×) and 9 and 6 and 0 and 1 and 5 (3×) and 10
BSS scoring E (eating/drinking), Time Bin 20 (95-100 TOTAL) [1]: 4 (3×) and 10 and 5 and 8 (2×) and 9 (2×) and 0 and 7 and 6
BSS scoring E (eating/drinking), Time Bin 21 (100-105 TOTAL) [1]: 3 and 10 (2×) and 9 (3×) and 7 (2×) and 0 (2×) and 1 and 2
BSS scoring E (eating/drinking), Time Bin 22 (105-110 TOTAL) [1]: 8 and 5 and 7 (3×) and 9 (2×) and 0 (2×) and 3 (2×) and 4
BSS scoring E (eating/drinking), Time Bin 23 (110-115 TOTAL) [1]: 10 (3×) and 6 and 0 (2×) and 8 (2×) and 4 and 3 and 5 (2×)
BSS scoring E (eating/drinking), Time Bin 24 (115-120 TOTAL) [1]: 6 and 0 (3×) and 8 and 4 (2×) and 7 and 2 (2×) and 1 and 10
BSS scoring G (grooming), Time Bin 19 (90-95 TOTAL) [1]: 0 (8×) and 2 (2×) and 1 (2×)
BSS scoring G (grooming), Time Bin 20 (95-100 TOTAL) [1]: 0 (8×) and 1 (3×) and 2
BSS scoring G (grooming), Time Bin 21 (100-105 TOTAL) [1]: 0 (8×) and 1 and 2 (3×)
BSS scoring G (grooming), Time Bin 22 (105-110 TOTAL) [1]: 0 (8×) and 2 (2×) and 1 and 3
BSS scoring G (grooming), Time Bin 23 (110-115 TOTAL) [1]: 0 (10×) and 1 (2×)
BSS scoring G (grooming), Time Bin 24 (115-120 TOTAL) [1]: 0 (10×) and 1 (2×)
BSS scoring R (resting), Time Bin 19 (90-95 TOTAL) [1]: 3 and 0 (5×) and 2 and 1 (3×) and 8 and 6
BSS scoring R (resting), Time Bin 20 (95-100 TOTAL) [1]: 1 (4×) and 0 (4×) and 2 (3×) and 8
BSS scoring R (resting), Time Bin 21 (100-105 TOTAL) [1]: 0 (5×) and 3 (2×) and 6 and 1 (3×) and 4
BSS scoring R (resting), Time Bin 22 (105-110 TOTAL) [1]: 2 (3×) and 0 (2×) and 1 (5×) and 10 and 5
BSS scoring R (resting), Time Bin 23 (110-115 TOTAL) [1]: 0 (5×) and 10 and 1 (2×) and 5 (2×) and 2 (2×)
BSS scoring R (resting), Time Bin 24 (115-120 TOTAL) [1]: 1 (3×) and 0 (4×) and 2 (2×) and 4 (2×) and 7
BSS scoring A (active), Time Bin 19 (90-95 TOTAL), AVG [2]: 0.30
BSS scoring A (active), Time Bin 20 (95-100 TOTAL), AVG [2]: 0.13
BSS scoring A (active), Time Bin 21 (100-105 TOTAL), AVG [2]: 0.08
BSS scoring A (active), Time Bin 22 (105-110 TOTAL), AVG [2]: 0.13
BSS scoring A (active), Time Bin 23 (110-115 TOTAL), AVG [2]: 0.21
BSS scoring A (active), Time Bin 24 (115-120 TOTAL), AVG [2]: 0.16
BSS scoring E (eating/drinking), Time Bin 19 (90-95 TOTAL), AVG [2]: 0.52
BSS scoring E (eating/drinking), Time Bin 20 (95-100 TOTAL), AVG [2]: 0.68
BSS scoring E (eating/drinking), Time Bin 21 (100-105 TOTAL), AVG [2]: 0.73
BSS scoring E (eating/drinking), Time Bin 22 (105-110 TOTAL), AVG [2]: 0.68
BSS scoring E (eating/drinking), Time Bin 23 (110-115 TOTAL), AVG [2]: 0.64
BSS scoring E (eating/drinking), Time Bin 24 (115-120 TOTAL), AVG [2]: 0.52
BSS scoring G (grooming), Time Bin 19 (90-95 TOTAL), AVG [2]: 0.03
BSS scoring G (grooming), Time Bin 20 (95-100 TOTAL), AVG [2]: 0.05
BSS scoring G (grooming), Time Bin 21 (100-105 TOTAL), AVG [2]: 0.04
BSS scoring G (grooming), Time Bin 22 (105-110 TOTAL), AVG [2]: 0.04
BSS scoring G (grooming), Time Bin 23 (110-115 TOTAL), AVG [2]: 0.03
BSS scoring G (grooming), Time Bin 24 (115-120 TOTAL), AVG [2]: 0.03
BSS scoring R (resting), Time Bin 19 (90-95 TOTAL), AVG [2]: 0.15
BSS scoring R (resting), Time Bin 20 (95-100 TOTAL), AVG [2]: 0.14
BSS scoring R (resting), Time Bin 21 (100-105 TOTAL), AVG [2]: 0.15
BSS scoring R (resting), Time Bin 22 (105-110 TOTAL), AVG [2]: 0.15
BSS scoring R (resting), Time Bin 23 (110-115 TOTAL), AVG [2]: 0.12
BSS scoring R (resting), Time Bin 24 (115-120 TOTAL), AVG [2]: 0.13
BSS scoring A (active), Time Bin 1 (0-5 TOTAL), AVG [3]: 0.09
BSS scoring A (active), Time Bin 2 (5-10 TOTAL), AVG [3]: 0.04
BSS scoring A (active), Time Bin 3 (10-15 TOTAL), AVG [3]: 0.03
BSS scoring A (active), Time Bin 4 (15-20 TOTAL), AVG [3]: 0.09
BSS scoring A (active), Time Bin 5 (20-25 TOTAL), AVG [3]: 0.08
BSS scoring A (active), Time Bin 6 (25-30 TOTAL), AVG [3]: 0.13
BSS scoring E (eating/drinking), Time Bin 1 (0-5 TOTAL), AVG [3]: 0.89
BSS scoring E (eating/drinking), Time Bin 2 (5-10 TOTAL), AVG [3]: 0.96
BSS scoring E (eating/drinking), Time Bin 3 (10-15 TOTAL), AVG [3]: 0.95
